Laboratory results: paper PMC7391767, “Molecular mechanisms underlying menthol binding and activation of TRPM8 ion channel” (Nature Communications, 2020)
Values joined by “and” are separate entries in the source; they are usually repeats but may differ in a detail not shown here. Identical values can stand only once.

Columns and labels:
Assay type in all cases: cell-based
Set-up in all cases: Shifts in ANAP emission, Ave: unit: nm
ANAP-incorporated TRPM8 [1] = target: T1, ANAP-incorporated TRPM8 (Mus musculus, UniProt Q8R4D5, D920X)
T1 construct: expressed in transfected cells; host or cells: HEK293 cells, co-transfected with the pANAP vector
Procedure: (§1) As fluorescence emission peak of ANAP shifts to a longer wavelength in more hydrophilic environment, we measured the shift in ANAP emission peak to report conformational changes. Fluorescence properties of ANAP may also be affected by other factors such as temperature and pH[31], so we performed our ANAP experiments always at room temperature (22 ± 1°C). To control for changes in solution pH, we added 3 mM HEPES in ANAP imaging solution to buffer the pH at 7.2. We genetically integrated ANAP into a specific site on TRPM8 with special tRNA and synthetase encoded by pANAP vector (Fig. 5d).
(§2) L-ANAP methyl ester was purchased from AsisChem. pANAP vector was purchased from Addgene. ANAP was incorporated into TRPM8 by introducing a TAG amber stop codon mutation as previously reported. Briefly, after co-transfection of both TRPM8 and pANAP vectors, ANAP was directly added to the culture medium to the final concentration of 20 µM. After 1–2 days, ANAP-containing culture medium was completely changed. Cells were further cultured in ANAP-free medium overnight before experiments.
(§3) ANAP fluorescence was excited by the Ar laser with a 375/28 excitation filter, a T400lp dichroic mirror, and a 435LP emission filter on an inverted fluorescence microscope (Nikon TE2000-U) using a ×40 oil-immersion objective (NA 1.3). Emission spectrum of ANAP was imaged with an Acton SpectraPro 2150i spectrograph in conjunction with an optiMOS CCD camera (Qimaging, USA). We determined the ANAP emission peak value by fitting the emission spectrum with a skewed Gauss distribution in Igor Pro version 6.1 (WaveMatrix), and then the difference in emission peak values measured in the absence and presence of menthol was reported as the shift of ANAP emission.

ANAP-incorporated TRPM8 [2] = target: T2, ANAP-incorporated TRPM8 (Mus musculus, UniProt Q8R4D5, L939X)
T2 construct: expressed in transfected cells; host or cells: HEK293 cells, co-transfected with the pANAP vector
Procedure: as §1, §2, §3

ANAP-incorporated TRPM8 [3] = target: T3, ANAP-incorporated TRPM8 (Mus musculus, UniProt Q8R4D5, L943X); conditions: ANAP incorporation site L943
T3 construct: expressed in transfected cells; host or cells: HEK293 cells, co-transfected with the pANAP vector
Procedure: as §1, §2, §3

ANAP-incorporated TRPM8 [4] = target: T4, ANAP-incorporated TRPM8 (Mus musculus, UniProt Q8R4D5, S966X); conditions: ANAP at S966
T4 construct: expressed in transfected cells; host or cells: HEK293 cells, co-transfected with the pANAP vector
Procedure: as §1, §2, §3

ANAP-incorporated TRPM8 [5] = target: T5, ANAP-incorporated TRPM8 (Mus musculus, UniProt Q8R4D5, S819X); conditions: ANAP incorporation site S819; average shift, menthol activated vs resting state
T5 construct: expressed in transfected cells; host or cells: HEK293 cells, co-transfected with the pANAP vector
Procedure: as §1, §2, §3

ANAP-incorporated TRPM8 [6] = target: T6, ANAP-incorporated TRPM8 (Mus musculus, UniProt Q8R4D5, L864X); conditions: ANAP incorporation site L864
T6 construct: expressed in transfected cells; host or cells: HEK293 cells, co-transfected with the pANAP vector
Procedure: as §1, §2, §3

ANAP-incorporated TRPM8 [7] = target: T7, ANAP-incorporated TRPM8 (Mus musculus, UniProt Q8R4D5, W896X); conditions: ANAP incorporation site W896
T7 construct: expressed in transfected cells; host or cells: HEK293 cells, co-transfected with the pANAP vector
Procedure: as §1, §2, §3

ANAP-incorporated TRPM8 [8] = target: T8, ANAP-incorporated TRPM8 (Mus musculus, UniProt Q8R4D5, W954X); conditions: ANAP incorporation site W954, menthol activated vs resting state
T8 construct: expressed in transfected cells; host or cells: HEK293 cells, co-transfected with the pANAP vector
Procedure: as §1, §2, §3

ANAP-incorporated TRPM8 [9] = target: T9, ANAP-incorporated TRPM8 (Mus musculus, UniProt Q8R4D5, V791X)
T9 construct: expressed in transfected cells; host or cells: HEK293 cells, co-transfected with the pANAP vector
Procedure: as §1, §2, §3

ANAP-incorporated TRPM8 [10] = target: T10, ANAP-incorporated TRPM8 (Mus musculus, UniProt Q8R4D5, T795X); conditions: ANAP incorporation site T795; average shift, menthol activated vs resting state
T10 construct: expressed in transfected cells; host or cells: HEK293 cells, co-transfected with the pANAP vector
Procedure: as §1, §2, §3

ANAP-incorporated TRPM8 [11] = target: T11, ANAP-incorporated TRPM8 (Mus musculus, UniProt Q8R4D5, N821X); conditions: ANAP incorporation site N821
T11 construct: expressed in transfected cells; host or cells: HEK293 cells, co-transfected with the pANAP vector
Procedure: as §1, §2, §3

ANAP-incorporated TRPM8 [12] = target: T12, ANAP-incorporated TRPM8 (Mus musculus, UniProt Q8R4D5, N789X); conditions: ANAP incorporation site N789; average shift, menthol activated vs resting state
T12 construct: expressed in transfected cells; host or cells: HEK293 cells, co-transfected with the pANAP vector
Procedure: as §1, §2, §3

ANAP-incorporated TRPM8 [13] = target: T13, ANAP-incorporated TRPM8 (Mus musculus, UniProt Q8R4D5, P958X)
T13 construct: expressed in transfected cells; host or cells: HEK293 cells, co-transfected with the pANAP vector
Procedure: as §1, §2, §3

ANAP-incorporated TRPM8 [14] = target: T14, ANAP-incorporated TRPM8 (Mus musculus, UniProt Q8R4D5, L817X); conditions: ANAP incorporation site L817; average shift, menthol activated vs resting state
T14 construct: expressed in transfected cells; host or cells: HEK293 cells, co-transfected with the pANAP vector
Procedure: as §1, §2, §3

ANAP-incorporated TRPM8 [15] = target: T15, ANAP-incorporated TRPM8 (Mus musculus, UniProt Q8R4D5, D944X); conditions: ANAP incorporation site D944
T15 construct: expressed in transfected cells; host or cells: HEK293 cells, co-transfected with the pANAP vector
Procedure: as §1, §2, §3

ANAP-incorporated TRPM8 [16] = target: T16, ANAP-incorporated TRPM8 (Mus musculus, UniProt Q8R4D5, N947X); conditions: ANAP incorporation site N947
T16 construct: expressed in transfected cells; host or cells: HEK293 cells, co-transfected with the pANAP vector
Procedure: as §1, §2, §3

[17] = average shift, menthol activated vs resting state

CC(C)[C@@H]1CC[C@@H](C)C[C@H]1O [menthol, (−)-menthol]
Shifts in ANAP emission, Ave (ANAP-incorporated TRPM8 [1]; ANAP at D920): 3.47 | Shifts_ave (ANAP-incorporated TRPM8 [1]; ANAP incorporation site D920, average shift, menthol activated vs resting state): 3.47 nm | Emission Peak at menthol activated state (ANAP-incorporated TRPM8 [1]; ANAP incorporation site D920, single measurement): 488.12 nm and 482.56 nm | Shifts in ANAP emission, Ave (ANAP-incorporated TRPM8 [2]; ANAP at L939): 2.11 | Shifts_ave (ANAP-incorporated TRPM8 [2]; ANAP incorporation site L939, average shift, menthol activated vs resting state): 2.11 nm | Shifts in emission (ANAP-incorporated TRPM8 [2]; ANAP incorporation site L939, menthol activated vs resting state, single measurement): 2.38 nm and 1.56 nm and 2.39 nm | Emission Peak at menthol activated state (ANAP-incorporated TRPM8 [2]; ANAP incorporation site L939, single measurement): 484.67 nm and 488.02 nm and 485.09 nm | Shifts_ave (ANAP-incorporated TRPM8 [3]; [17]): -0.71 nm | Emission Peak at menthol activated state (ANAP-incorporated TRPM8 [3]; single measurement): 476.85 nm and 475.15 nm and 483.93 nm and 482.35 nm and 475.81 nm and 479.5 nm | Shifts in ANAP emission, Ave (ANAP-incorporated TRPM8 [4]): 2.10 | Shifts_ave (ANAP-incorporated TRPM8 [5]): 0.65 nm | Shifts_ave (ANAP-incorporated TRPM8 [6]; [17]): 1.37 nm | Shifts in emission (ANAP-incorporated TRPM8 [6]; menthol activated vs resting state, single measurement): 1.34 nm and 1.42 nm and 1.82 nm and 1.04 nm and 1.21 nm | Emission Peak at menthol activated state (ANAP-incorporated TRPM8 [6]; single measurement): 481.75 nm and 488.11 nm and 492.24 nm and 485.58 nm and 489.77 nm | Shifts_ave (ANAP-incorporated TRPM8 [7]; [17]): -1.22 nm | Emission Peak at menthol activated state (ANAP-incorporated TRPM8 [7]; single measurement): 474.04 nm and 481.17 nm and 479.96 nm and 475.43 nm | Shifts_ave (ANAP-incorporated TRPM8 [8]; average shift): 1.45 nm | Shifts in emission (ANAP-incorporated TRPM8 [8]; single measurement): 1.59 nm and 1.14 nm and 1.76 nm and 1.68 nm and 1.08 nm | Shifts in ANAP emission, Ave (ANAP-incorporated TRPM8 [9]; ANAP at V791): 2.05 | Shifts_ave (ANAP-incorporated TRPM8 [9]; ANAP incorporation site V791, average shift, menthol activated vs resting state): 2.05 nm | Shifts_ave (ANAP-incorporated TRPM8 [10]): 1.996 nm | Shifts_ave (ANAP-incorporated TRPM8 [11]; [17]): 0.50 nm | Emission Peak at menthol activated state (ANAP-incorporated TRPM8 [11]; single measurement): 493.6 nm | Shifts_ave (ANAP-incorporated TRPM8 [12]): 0.79 nm | Shifts in ANAP emission, Ave (ANAP-incorporated TRPM8 [13]; ANAP at P958): 2.76 | Shifts_ave (ANAP-incorporated TRPM8 [13]; ANAP incorporation site P958, average shift, menthol activated vs resting state): 2.32 nm | Shifts in emission (ANAP-incorporated TRPM8 [13]; ANAP incorporation site P958, menthol activated vs resting state, single measurement): 2.11 nm and 2.76 nm and 2.75 nm and 1.64 nm | Shifts_ave (ANAP-incorporated TRPM8 [14]): 0.801 nm | Shifts_ave (ANAP-incorporated TRPM8 [15]; [17]): -0.0133 nm | Emission Peak at menthol activated state (ANAP-incorporated TRPM8 [15]; single measurement): 482.52 nm and 471.8 nm and 476.65 nm and 473.2 nm and 484.21 nm and 484.16 nm | Shifts_ave (ANAP-incorporated TRPM8 [16]; [17]): 0.33 nm | Emission Peak at menthol activated state (ANAP-incorporated TRPM8 [16]; single measurement): 485.99 nm and 482.4 nm and 486.05 nm and 485.2 nm and 481.1 nm
